Reference: patent US12600926B2, “Treatment compositions with modified amino acid dimers for delivering a benefit agent” (The Procter & Gamble Company, priority 2022, dated 2026)

Assay: Stability of the independent neat fluid by 1H NMR
Type: physicochemical
Conditions: neat premix fluid, storage
Procedure: (§1) Synthetic Example 1′ was prepared as described in General Method A, but using 10 g of L-Cystine, 17.0 g of dodecanol, and 17.4 g PTSA·H2O. The isolated fluid of Synthetic Example 1′ was then mixed with cyclamen aldehyde as described in General Method B yielding Synthetic Example 1.
as §1, with “2′” for “1′”, “5.0” for “10”, “2,6-Diaminoheptanedioic acid, 10.5” for “L-Cystine, 17.0”, “11” for “17.4”, “with 15 wt % ethanol, and” for “with”, “2A.” for “1.”
Synthetic Example 2′ was prepared as described in General Method A, but using 5.0 g of 2,6-Diaminoheptanedioic acid, 10.8 g of dodecanol, and 11.1 g PTSA H2O. The isolated fluid of Synthetic Example 2′ was then mixed with 15 wt % ethanol, and δ-Damascone, as described in General Method B yielding Synthetic Example 2B.

Row | Stability of the independent fluid by 1H NMR | SMILES
1 | stable for several months | CCCCCCCCCCCCOC(=O)C(CCCC(N=CC(C)Cc1ccc(C(C)C)cc1)C(=O)OCCCCCCCCCCCC)N=CC(C)Cc1ccc(C(C)C)cc1 (centres unmarked) [Synthetic Example 2A]
2 | stable for several months | CCCCCCCCCCCCOC(=O)C(CCCC(NC(C)CC(=O)C1C(C)C=CCC1(C)C)C(=O)OCCCCCCCCCCCC)NC(C)CC(=O)C1C(C)C=CCC1(C)C (centres unmarked) [Synthetic Example 2B]
